Measurements reported in BigSolDB 2.1.

COc1cc(C(=O)O)cc(OC)c1O
solubility (mole fraction)
Conditions | 283.15 K | 288.15 K | 293.15 K | 298.15 K | 303.15 K | 308.15 K | 313.15 K | 318.15 K | 323.15 K
in ethanol | 0.0115 | 0.0125 | 0.0145 | 0.0169 | 0.0188 | 0.0217 | 0.0251 | 0.0279 | 0.0316
in ethyl acetate | 0.0007 | 0.00084 | 0.001 | 0.00125 | 0.00149 | 0.0018 | 0.00221 | 0.0026 | 0.00323
in ethylene glycol | 0.00812 | 0.00951 | 0.0113 | 0.0124 | 0.0146 | 0.017 | 0.0203 | 0.0235 | 0.0269
in isopropanol | 0.00401 | 0.00455 | 0.00545 | 0.00627 | 0.00752 | 0.00853 | 0.00971 | 0.0115 | 0.0131
in methanol | 0.0137 | 0.015 | 0.0173 | 0.019 | 0.0209 | 0.0238 | 0.0271 | 0.0298 | 0.0331
in n-butanol | 0.0032 | 0.00375 | 0.00441 | 0.00518 | 0.00624 | 0.00735 | 0.00832 | 0.0098 | 0.0116
in n-hexanol | 0.00241 | 0.00281 | 0.0033 | 0.0042 | 0.0048 | 0.0058 | 0.00702 | 0.00852 | 0.0101
in sec-butanol | 0.00188 | 0.00223 | 0.0029 | 0.00357 | 0.00432 | 0.00503 | 0.00604 | 0.00737 | 0.00921
